Experimental data reported in patent US8394442B2, “Process for the preparation of a flavoring concentrate, and a flavoring concentrate” (SYMRISE AG, priority 2007, dated 2013).
Like-named read-outs stand apart in the source and are kept apart here.

Assays:
[1] = log Pow* calculated by Formula 2 from log Pow and the polarity parameter P′(x) of the ethanol/water mixture
[2] = log Pow: distribution coefficient between 1-octanol and water; conditions: 1-octanol/water
Excerpt: Log Pow*=log Pow*−x*P′(x)/log Pow Formula 2: • where log Pow is the decimal logarithm of the distribution coefficient of a substance between 1-octanol and water, • x is the resulting solvent proportion based on the total volume proportion, normalized as 1.0, and • P′(x) is the polarity parameter for the corresponding solvent for the solvent proportion x.

[3] = solvent ethanol, proportion 10%
[4] = solvent ethanol, proportion 30%
[5] = solvent ethanol, proportion 40%
[6] = solvent ethanol, proportion 50%
[7] = solvent ethanol, proportion 60%
[8] = solvent ethanol, proportion 70%
[9] = solvent ethanol, proportion 80%
[10] = solvent ethanol, proportion 90%
[11] = solvent ethanol, proportion 100%

Row | Structure (SMILES) | log Pow* (P′ 2%) [1] | log Pow* (P′ 4%) [1] | log Pow* (P′ 6%) [1] | log Pow* (P′ 8%) [1] | log Pow* (P′ 10%) [1] | log Pow* (P′ 30%) [1] | log Pow [2] | log Pow* (P′ 2%) ([1]; solvent ethanol, proportion 2%) | log Pow* (P′ 4%) ([1]; solvent ethanol, proportion 4%) | log Pow* (P′ 6%) ([1]; solvent ethanol, proportion 6%) | log Pow* (P′ 8%) ([1]; solvent ethanol, proportion 8%) | log Pow* (P′ 10%) [1, 3] | log Pow* (P′ 30%) [1, 4] | log Pow* (P′ 40%) [1, 5] | log Pow* (P′ 50%) [1, 6] | log Pow* (P′ 60%) [1, 7] | log Pow* (P′ 70%) [1, 8] | log Pow* (P′ 80%) [1, 9] | log Pow* (P′ 90%) [1, 10] | log Pow* (P′ 100%) [1, 11] | further results
1 | CCCC(=O)OCC [Ethylbutyrate] | 1.66 | 1.55 | 1.45 | 1.35 | 1.26 | 0.55 | 1.77 | – | – | – | – | – | – | – | – | – | – | – | – | – | log Pow* (P′ 40%) [1]: 0.28; log Pow* (P′ 50%) [1]: 0.06; log Pow* (P′ 60%) [1]: −0.13; log Pow* (P′ 70%) [1]: −0.29; log Pow* (P′ 80%) [1]: −0.43; log Pow* (P′ 90%) [1]: −0.55; log Pow* (P′ 100%) [1]: −0.66
2 | CCOC(=O)C(C)CC (centres unmarked) [Ethylmethylbutyrate-2] | – | – | – | – | – | – | 2.38 | 2.30 | 2.22 | 2.14 | 2.07 | 2.00 | 1.47 | 1.27 | 1.11 | 0.97 | 0.85 | 0.75 | 0.65 | 0.57 | –
3 | SCc1ccco1 [Furfurylthiol-2] | – | – | – | – | – | – | 1.90 | 1.80 | 1.70 | 1.60 | 1.51 | 1.43 | 0.76 | 0.51 | 0.31 | 0.13 | −0.02 | −0.15 | −0.26 | −0.36 | –
4 | c1ccc2[nH]ccc2c1 [Indole] | – | – | – | – | – | – | 2.14 | 2.05 | 1.96 | 1.88 | 1.80 | 1.72 | 1.13 | 0.91 | 0.73 | 0.57 | 0.44 | 0.32 | 0.22 | 0.13 | –
5 | CC/C=C\CC1CCCC(=O)O1 (centres unmarked) [Jasmine lactone] | – | – | – | – | – | – | 2.47 | 2.39 | 2.31 | 2.24 | 2.17 | 2.11 | 1.59 | 1.40 | 1.25 | 1.11 | 1.00 | 0.90 | 0.81 | 0.73 | –
6 | C=CC(C)(O)CCC=C(C)C (centres unmarked) [Linalool] | 3.22 | 3.16 | 3.11 | 3.06 | 3.01 | 2.62 | 3.28 | – | – | – | – | – | – | – | – | – | – | – | – | – | log Pow* (P′ 40%) [1]: 2.48; log Pow* (P′ 50%) [1]: 2.36; log Pow* (P′ 60%) [1]: 2.26; log Pow* (P′ 70%) [1]: 2.17; log Pow* (P′ 80%) [1]: 2.09; log Pow* (P′ 90%) [1]: 2.03; log Pow* (P′ 100%) [1]: 1.97
7 | CC/C=C\CC1C(=O)CCC1CC(=O)OC (centres unmarked) [Methyl jasmonate] | 2.03 | 1.94 | 1.85 | 1.77 | 1.70 | 1.10 | 2.12 | – | – | – | – | – | – | – | – | – | – | – | – | – | log Pow* (P′ 40%) [1]: 0.88; log Pow* (P′ 50%) [1]: 0.69; log Pow* (P′ 60%) [1]: 0.54; log Pow* (P′ 70%) [1]: 0.40; log Pow* (P′ 80%) [1]: 0.29; log Pow* (P′ 90%) [1]: 0.18; log Pow* (P′ 100%) [1]: 0.09
